# Measured values as given in publication PMC7069944, “Amino acid levels determine metabolism and CYP450 function of hepatocytes and hepatoma cell lines” (Nature Communications, 2020).
# Several values for one entry are separate records, joined by “and”; a condition that tells them apart may be missing. Identical values can stand only once.
# How the values were obtained:
# HepG2 = assay: Repeated-exposure DILI training compounds, resazurin conversion, HepG2; settings: listed as Nefadazone; for resazurin conversion (Supplementary Figure 7D): replicates; for % resazurin conversion: repeat exposure
# Procedure: (§1) To evaluate the ability to predict hepatotoxicity, we adapted the differentiation assays to a 384-well format. […] As a readout, we evaluated cell viability by resazurin conversion and correlated the results to therapeutic doses (Cmax values).
# (§2) PSCs were differentiated in a 384-well format. […] As a negative control, 41 wells were left untreated. HepG2 were seeded at 40,000 cells per well. […] Cells were fixed with 4% PFA. […] Drugs were administrated after 8 h of attachment.
# HLC = assay: Repeated-exposure DILI training compounds, resazurin conversion, HLC; settings: listed as Nefadazone; for resazurin conversion (Supplementary Figure 7D): replicates; for % resazurin conversion: repeat exposure
# Procedure: as §1, §2
# HC3X = assay: Repeated-exposure DILI training compounds, resazurin conversion, HC3X; settings: for resazurin conversion (Supplementary Figure 7D): HC3X AAGLY D40, replicates
# Procedure: as §1, §2
# HC6X = assay: Repeated-exposure DILI training compounds, resazurin conversion, HC6X; settings: listed as Nefadazone; for resazurin conversion (Supplementary Figure 7D): replicates; for % resazurin conversion: repeat exposure
# Procedure: as §1, §2
structure (smiles),measurement,setting,value
CCc1nn(CCCN2CCN(c3cccc(Cl)c3)CC2)c(=O)n1CCOc1ccccc1 [nefazodone],resazurin conversion (Supplementary Figure 7D),"HepG2; HepG2 AAGLY D30, 3 uM",105.9 and 126.8 and 102.6 and 103 and 93.1 and 96.9
same,resazurin conversion (Supplementary Figure 7D),"HepG2; HepG2 AAGLY D30, 5 uM",129.6 and 134.9 and 121.5 and 111.6 and 104 and 111.7
same,resazurin conversion (Supplementary Figure 7D),"HepG2; HepG2 AAGLY D30, 10 uM",105.3 and 123.3 and 96.5 and 99.1 and 96.1 and 97.4
same,resazurin conversion (Supplementary Figure 7D),"HepG2; HepG2 AAGLY D30, 30 uM",36 and 76.7 and 84.8 and 78.3 and 78 and 67.3
same,resazurin conversion (Supplementary Figure 7D),"HepG2; HepG2 AAGLY D30, 50 uM",9 and 9.3 and 8 (2×) and 8.1 and 7.7
same,resazurin conversion (Supplementary Figure 7D),"HepG2; HepG2 AAGLY D30, 100 uM",9.2 and 9.7 and 8.4 (2×) and 7.9 and 8.1
same,resazurin conversion (Supplementary Figure 7D),"HepG2; HepG2 AAGLY D30, 300 uM",11.5 and 11.8 and 10.1 (2×) and 10.3 and 9.9
same,resazurin conversion (Supplementary Figure 7D),"HepG2; HepG2 AAGLY D30, 600 uM",11.8 and 11.6 and 10.3 and 10.8 and 10.2 and 10.1
same,resazurin conversion (Supplementary Figure 7D),"HepG2; HepG2 CTL D7, 3 uM",81.4 and 72 and 103.7 and 72.2 and 87 and 94.4
same,resazurin conversion (Supplementary Figure 7D),"HepG2; HepG2 CTL D7, 5 uM",84.8 and 64.7 and 80.3 and 68.3 and 74.8 and 74.1
same,resazurin conversion (Supplementary Figure 7D),"HepG2; HepG2 CTL D7, 10 uM",81.6 and 63.4 and 87.3 and 63.9 and 78.5 and 72.9
same,resazurin conversion (Supplementary Figure 7D),"HepG2; HepG2 CTL D7, 30 uM",60.5 and 51.3 and 64.3 and 51.4 and 61.6 and 55.4
same,resazurin conversion (Supplementary Figure 7D),"HepG2; HepG2 CTL D7, 50 uM",35.6 and 31 and 32.6 and 33.9 and 34.6 and 33.7
same,resazurin conversion (Supplementary Figure 7D),"HepG2; HepG2 CTL D7, 100 uM",30.9 and 30.6 and 31.4 and 30 and 30.5 and 29.7
same,resazurin conversion (Supplementary Figure 7D),"HepG2; HepG2 CTL D7, 300 uM",36.6 and 35.8 and 37 and 36.1 and 37.2 and 36
same,resazurin conversion (Supplementary Figure 7D),"HepG2; HepG2 CTL D7, 600 uM",37.5 (2×) and 36.2 and 38.4 and 36.6 and 34.9
same,% resazurin conversion,"HepG2; HepG2 AAGLY D30, 1200 uM",11% and 9.3% and 9.9% and 9.1%
same,% resazurin conversion,"HepG2; HepG2 CTL D7, 1200 uM",34.4% and 33.1% and 36.4% and 33% and 34.9% and 32.3%
same,resazurin conversion (Supplementary Figure 7D),"HLC; HLC AAGLY D40, 3 uM",81 and 139.4 and 131.8 and 81.1 and 194.1 and 102.8
same,resazurin conversion (Supplementary Figure 7D),"HLC; HLC AAGLY D40, 5 uM",158.2 and 102.6 and 130.1 and 239.6 and 167 and 46.2
same,resazurin conversion (Supplementary Figure 7D),"HLC; HLC AAGLY D40, 10 uM",117.1 and 195.1 and 92.8 and 87 and 6 and 258.8
same,resazurin conversion (Supplementary Figure 7D),"HLC; HLC AAGLY D40, 30 uM",52.4 and 182.9 and 124.1 and 55.1 and 48.3 and 27
same,resazurin conversion (Supplementary Figure 7D),"HLC; HLC AAGLY D40, 50 uM",46.9 and 25.2 and 26.1 and 23.4 and 30.1 and 22.3
same,resazurin conversion (Supplementary Figure 7D),"HLC; HLC AAGLY D40, 100 uM",22.1 and 23 and 22.5 and 22.9 and 24.2 and 22.8
same,resazurin conversion (Supplementary Figure 7D),"HLC; HLC AAGLY D40, 300 uM",25.4 and 26.9 (2×) and 25.9 and 25.8 and 27.1
same,resazurin conversion (Supplementary Figure 7D),"HLC; HLC AAGLY D40, 600 uM",27.4 and 30.3 and 28.5 and 29.2 and 27.1 and 28.7
same,resazurin conversion (Supplementary Figure 7D),"HLC; HLC LDM D40, 3 uM",101.3 and 106.4 and 83.1 and 128.8 and 110.4 and 128.2
same,resazurin conversion (Supplementary Figure 7D),"HLC; HLC LDM D40, 5 uM",103.9 and 126.1 and 116.3 and 112.6 and 76.1 and 103.3
same,resazurin conversion (Supplementary Figure 7D),"HLC; HLC LDM D40, 10 uM",114.4 and 115.2 and 124.5 and 104.3 and 103.8 and 111.5
same,resazurin conversion (Supplementary Figure 7D),"HLC; HLC LDM D40, 30 uM",92.8 and 75.4 and 51.3 and 90.2 and 120.8 and 118.9
same,resazurin conversion (Supplementary Figure 7D),"HLC; HLC LDM D40, 50 uM",12.7 and 17.8 and 12.3 and 20.8 and 25.8 and 69.6
same,resazurin conversion (Supplementary Figure 7D),"HLC; HLC LDM D40, 100 uM",11 and 11.6 and 11.2 and 11.3 and 10.7 and 11.5
same,resazurin conversion (Supplementary Figure 7D),"HLC; HLC LDM D40, 300 uM",13.5 and 13.3 and 13.6 and 12.4 and 12.2 (2×)
same,resazurin conversion (Supplementary Figure 7D),"HLC; HLC LDM D40, 600 uM",13.7 (2×) and 13.1 and 13.4 and 13.5 and 13.2
same,% resazurin conversion,"HLC; HLC AAGLY D40, 1200 uM",28.9% and 30.9% and 30.5% and 32.9% and 28% and 30.1%
same,% resazurin conversion,"HLC; HLC LDM D40, 1200 uM",14.7% and 15.3% and 13.9% and 14.1% and 13.7% and 12%
same,resazurin conversion (Supplementary Figure 7D),"HC3X; 3 uM, listed as Nefadazone",123.3 and 103.5 and 107.9 and 73 and 98.7 and 69.4
same,resazurin conversion (Supplementary Figure 7D),"HC3X; 5 uM, listed as Nefadazone",105.3 and 82.4 and 66.4 and 71.1 and 119.1 and 75.8
same,resazurin conversion (Supplementary Figure 7D),"HC3X; 10 uM, listed as Nefadazone",99 and 147.2 and 96.3 and 91.8 and 116 and 76.9
same,resazurin conversion (Supplementary Figure 7D),"HC3X; 30 uM, listed as Nefadazone",10.5 and 10.9 and 12.1 and 10 and 9.5 and 10.1
same,resazurin conversion (Supplementary Figure 7D),"HC3X; 50 uM, listed as Nefadazone",10 and 9.9 and 9.3 (2×) and 9.2 and 9.8
same,resazurin conversion (Supplementary Figure 7D),"HC3X; 100 uM, listed as Nefadazone",10.6 and 10.4 and 9.7 and 9.8 and 9.4 and 9.6
same,resazurin conversion (Supplementary Figure 7D),"HC3X; 300 uM, listed as Nefadazone",11.9 and 11.5 and 10.9 and 11.2 and 10.5 and 10.7
same,resazurin conversion (Supplementary Figure 7D),"HC3X; 600 uM, listed as Nefadazone",12 and 12.2 and 11.3 and 11.6 and 11.1 and 10.9
same,IC50/Cmax,HC3X; human,12.43
same,% resazurin conversion,"HC3X; repeat exposure, HC3X AAGLY D40, 1200 uM, listed as Nefadazone",12.8% and 12.4% and 11.8% and 12.1% and 11.5% and 12.2%
same,resazurin conversion (Supplementary Figure 7D),"HC6X; HC6X AAGLY D40, 3 uM",86.5 and 67.1 and 73.3 and 119.9 and 72.8 and 62.6
same,resazurin conversion (Supplementary Figure 7D),"HC6X; HC6X AAGLY D40, 5 uM",140.1 and 114.8 and 61.7 and 68.6 and 76.5 and 54.7
same,resazurin conversion (Supplementary Figure 7D),"HC6X; HC6X AAGLY D40, 10 uM",51.6 and 55.1 and 57.3 and 43.6 and 49.8 and 39.8
same,resazurin conversion (Supplementary Figure 7D),"HC6X; HC6X AAGLY D40, 30 uM",34.6 and 33.4 and 31.3 and 32.6 and 37.8 and 31.2
same,resazurin conversion (Supplementary Figure 7D),"HC6X; HC6X AAGLY D40, 50 uM",34.2 and 34.7 and 32 and 32.2 and 31.8 and 32.4
same,resazurin conversion (Supplementary Figure 7D),"HC6X; HC6X AAGLY D40, 100 uM",37.1 and 36.6 and 34.3 and 34.6 and 33.8 and 34.2
same,resazurin conversion (Supplementary Figure 7D),"HC6X; HC6X AAGLY D40, 300 uM",40.6 and 41.1 and 39.2 and 40 and 39.1 and 37.4
same,resazurin conversion (Supplementary Figure 7D),"HC6X; HC6X AAGLY D40, 600 uM",39.7 and 40.4 and 38.5 and 38.6 and 37.6 and 37.9
same,resazurin conversion (Supplementary Figure 7D),"HC6X; HC6X AAGLY D40 Remove dox, 3 uM",183.4 and 100.9 and 109.5 and 115 and 122 and 109.2
same,resazurin conversion (Supplementary Figure 7D),"HC6X; HC6X AAGLY D40 Remove dox, 5 uM",251 and 184.4 and 147 and 113 and 98.3 and 98.4
same,resazurin conversion (Supplementary Figure 7D),"HC6X; HC6X AAGLY D40 Remove dox, 10 uM",257.2 and 78.2 and 239.1 and 205.6 and 148.8 and 110.7
same,resazurin conversion (Supplementary Figure 7D),"HC6X; HC6X AAGLY D40 Remove dox, 30 uM",87 and 111.9 and 134.6 and 112.2 and 58.4 and 83.6
same,resazurin conversion (Supplementary Figure 7D),"HC6X; HC6X AAGLY D40 Remove dox, 50 uM",39.8 and 27.8 and 36.9 and 29.8 and 32 and 29.6
same,resazurin conversion (Supplementary Figure 7D),"HC6X; HC6X AAGLY D40 Remove dox, 100 uM",29.7 (2×) and 28.9 and 29.4 and 29.6 and 29.1
same,resazurin conversion (Supplementary Figure 7D),"HC6X; HC6X AAGLY D40 Remove dox, 300 uM",34.3 and 32.8 and 33.8 and 34 and 34.1 and 34.5
same,resazurin conversion (Supplementary Figure 7D),"HC6X; HC6X AAGLY D40 Remove dox, 600 uM",36.7 (2×) and 35.4 and 36 and 36.5 and 36.3
same,% resazurin conversion,"HC6X; HC6X AAGLY D40, 1200 uM",40.4% and 40.1% and 39.1% and 39.2% and 37.6% and 37.4%
same,% resazurin conversion,"HC6X; HC6X AAGLY D40 Remove dox, 1200 uM",38.2% and 35.3% and 36.9% and 37.7% and 37% and 35.8%
